Measurements taken from patent US7348357B2, “Arylamides” (Bayer HealthCare AG, priority 2002, dated 2008).
Converted amounts (≈) assume the structure as drawn.

Legend:
[1] = test system: Haemophilus influenzae Spain 7; experiment: Minimum inhibitory concentration (MIC), liquid dilution test; assay type: cell-based; settings: BHI broth plus 20% bovine serum, 10 μg/ml hemin and 1% Isovitale, 37° C., 18-24 hours, 8-10% CO2, lowest concentration with no visible bacterial growth
Method: (§1) Determination of the Minimum Inhibitory Concentration (MIC): The MIC is determined in a liquid dilution test. Overnight cultures of the test organisms are diluted to a cell count of 10^5 organisms per ml in Isosensitest medium (Difco, Irvine, USA) and are incubated with dilutions of the test substances (1:2 dilution stages). Exceptions are the tests with S. pneumoniae […], which are conducted in BHI broth (Difco) plus 20% bovine serum, and with H. influenzae, which are conducted in BHI broth (Difco) plus 20% bovine serum, 10 μg/ml hemin and 1% Isovitale (Becton Dickinson, New Jersey, USA). The cultures are incubated at 37° C. for 18-24 hours; S. pneumoniae and H. influenzae in the presence of 8-10% CO2. The lowest concentration of each substance at which there is no longer any visible bacterial growth is defined as the MIC. The MICs in μmol/l of some compounds of the invention against a series of test organisms are listed by way of example in the table below.

[2] = test system: Staphylococcus aureus 133; experiment: as above; assay type: cell-based; settings: Isosensitest medium, 10^5 organisms per ml, 37° C., 18-24 hours, lowest concentration with no visible bacterial growth
Method: as §1

bacteria = settings: described in the literature (J. Am. Chem. Soc. 1987, J. Org. Chem. 1994, J. Antibiot. 1997); cited from earlier work

Row | Structure (SMILES) | MIC Haemophilus influenzae Spain 7 [1] | MIC [2] | antibacterial activity (bacteria)
1 | CC(C)[C@H](NC(=O)C[C@H](NC(=O)c1cccc(F)n1)c1ccccc1)C(=O)[C@@H]1C(=O)NC(=O)[C@H]1C [Example 2, 6-Fluoro-N-{(1S)-3-[((1S)-2-methyl-1-{[(3R,4S)-4-methyl-2,5-dioxo-3-pyrrolidinyl]-carbonyl}propyl)amino]-3-oxo-1-phenylpropyl}-2-pyridinecarboxamide] | 7.81 µmol/L | 15.6 µM (≈ 7.54 µg/mL) | –
2 | CC(C)[C@H](NC(=O)C[C@H](NC(=O)c1cc(-c2ccccc2)ccn1)c1ccccc1)C(=O)[C@@H]1C(=O)NC(=O)[C@H]1C [Example 6, N-{(1S)-3-[((1S)-2-Methyl-1-{[(3R,4S)4-methyl-2,5-dioxo-3-pyrrolidinyl]-carbonyl}propyl)amino]-3-oxo-1-phenylpropyl}-4-phenyl-2-pyridinecarboxamide] | 15.63 µmol/L | 7.81 µM (≈ 4.22 µg/mL) | –
3 | C[C@@H]1C(=O)NC(=O)[C@H]1C(=O)C(NC(=O)C[C@H](NC(=O)c1ccccn1)c1ccccc1)C1CCCC1 (stereo partly drawn) [Example 9, N-[(1S)-3-({1-Cyclopentyl-2-[(3R,4S)-4-methyl-2,5-dioxo-3-pyrrolidinyl]-2-oxoethyl}amino)-3-oxo-1-phenylpropyl]-2-pyridinecarboxamide] | 62.5 µmol/L | 7.81 µM (≈ 3.83 µg/mL) | –
4 | C[C@@H]1C(=O)NC(=O)[C@H]1C(=O)[C@@H](NC(=O)C[C@H](NC(=O)c1cc2cc(F)ccc2[nH]1)c1ccccc1)C1CCCC1 [Example 48, N-[(1S)-3-({(1S)-1-Cyclopentyl-2-[(3R,4S)4-methyl-2,5-dioxo-3-pyrrolidinyl]-2-oxoethyl}amino)-3-oxo-1-phenylpropyl]-5-fluoro-1 H-indole-2-carboxamide] | 15.63 µmol/L | 0.98 µM (≈ 0.536 µg/mL) | –
5 | COc1ccc(CC(=O)N[C@@H](CC(=O)N[C@H](C(=O)[C@@H]2C(=O)NC(=O)[C@H]2C)C(C)C)c2ccccc2)c(Cl)c1Cl [Example 109] | 62.5 µmol/L | 0.98 µM (≈ 0.565 µg/mL) | –
6 | C/C=C/C=C/C=C/C(=O)N[C@@H](CC(=O)N[C@H](C(=O)[C@@H]1C(=O)NC(=O)[C@H]1C)C(C)C)c1ccccc1 [andrimid] | – | – | having antibacterial activity
7 | C/C=C/C=C/C(=O)N[C@@H](CC(=O)N[C@H](C(=O)[C@@H]1C(=O)NC(=O)[C@H]1C)C(C)C)c1ccccc1 [moiramide B] | – | – | having antibacterial activity
8 | C/C=C/C=C/C=C/C(=O)N[C@@H](CC(=O)N[C@H](C(=O)[C@@]1(O)C(=O)NC(=O)[C@H]1C)C(C)C)c1ccccc1 [moiramide C] | – | – | inactive
